We go through 24 compounds from US10851083B2, “Benzoimidazoles as prolyl hydroxylase inhibitors” (Janssen Pharmaceutica NV, priority 2008, dated 2020).

The target of one experiment is human PHD2181-417 (Homo sapiens (Human), UniProt Q9GZT9). The experiment is described as follows: PHD2 enzyme activity assay ([14C]-succinic acid production).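 As to all read-outs here: reaction ran 10 min with compound in Tris pH 7.5 buffer with catalase, DTT and ascorbate, labelled succinate freed of leftover 2-oxoglutarate by DNP precipitation, then beta counted.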 Particulars: PHD2181-417 polypeptide, HIF-1α peptide 10 μM, [5-14C]-2-oxoglutaric acid, 30 min pre-incubation, tested 10 μM to 3 nM; for IC50: read-out: Enzyme pIC50 (converted). It counts as biochemical.
Chain of human PHD2181-417 (Q9GZT9 181-417): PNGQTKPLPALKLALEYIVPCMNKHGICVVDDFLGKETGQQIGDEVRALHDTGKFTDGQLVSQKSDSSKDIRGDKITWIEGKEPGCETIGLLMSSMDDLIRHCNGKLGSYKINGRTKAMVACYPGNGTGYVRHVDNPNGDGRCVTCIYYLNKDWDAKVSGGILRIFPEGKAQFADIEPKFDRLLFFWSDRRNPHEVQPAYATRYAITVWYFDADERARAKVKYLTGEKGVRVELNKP
The next experiment deals with Hep-3B cells. The experiment is described as follows: Cellular assay: EPO secretion in Hep-3B cells. It counts as cell-based, human. Details: EPO secretion, % of control compound: dose or concentration left out as unconfirmed. Particulars: 24 h, EPO secretion as percentage of control compound 7-[(4-Chloro-phenyl)-(5-methyl-isoxazol-3-ylamino)-methyl]-quinolin-8-ol; for EPO secretion, % of control compound: Homo sapiens, Hep3B, read-out: Cellular % EPO Stimulation; for Cellular % EPO Stimulation: compound at 100 μM (10 μM or 100 μM).

`O=C(O)c1cnn(-c2nc3cc(Cl)c(Cl)cc3[nH]2)c1` [Example 2, 1-(5,6-Dichloro-1H-benzoimidazol-2-yl)-1H-pyrazole-4-carboxylic Acid]: the “Enzyme pIC50” value on human PHD2181-417 is given as 6.9. Also, the EPO secretion, % of control compound with Hep-3B cells came to 152%.
Consider `O=C(O)c1cn(-c2nc3cc(Cl)c(Cl)cc3[nH]2)nc1C(F)(F)F` [Example 20, 1-(5,6-dichloro-1H-benzoimidazol-2-yl)-3-trifluoromethyl-1H-pyrazole-4-carboxylic Acid], for which the IC50 on human PHD2181-417 is > 100 µM. Further, the “Cellular % EPO Stimulation” value in the experiment on Hep-3B cells was determined as 18.81%.
Turning to `Cc1nn(-c2nc3cc(Cl)c(Cl)cc3[nH]2)c(C)c1C(=O)O` [Example 22, 1-(5,6-Dichloro-1H-benzoimidazol-2-yl)-3,5-dimethyl-1H-pyrazole-4-carboxylic Acid], the IC50 at human PHD2181-417 was > 100 µM. Moreover, in the experiment on Hep-3B cells, the “Cellular % EPO Stimulation” value was 0.47%.
On to `O=C(O)c1cnn(-c2nc3c(Cl)cccc3[nH]2)c1` [Example 27, 1-(4-Chloro-1H-benzoimidazol-2-yl)-1H-pyrazole-4-carboxylic Acid], for which the “Enzyme pIC50” value at human PHD2181-417 stood at 6.1. In addition, the EPO secretion, % of control compound with Hep-3B cells came out at 19.1%.
The like results for `O=C(O)c1cnn(-c2nc3cc(Cl)cc(C(F)(F)F)c3[nH]2)c1` [Example 28, 1-(5-Chloro-7-trifluoromethyl-1H-benzoimidazol-2-yl)-1H-pyrazole-4-carboxylic Acid] were, in that order, 6.4 and 16.6%.
In the case of `O=C(O)c1cnn(-c2nc3c(F)c(F)c(F)cc3[nH]2)c1` [Example 31, 1-(4,5,6-Trifluoro-1H-benzoimidazol-2-yl)-1H-pyrazole-4-carboxylic Acid], the “Enzyme pIC50” value on human PHD2181-417 worked out at 7. Also, in the experiment with Hep-3B cells, the EPO secretion, % of control compound amounted to 18.2%.
The like results for `O=C(O)c1cnn(-c2nc3c(Br)c(F)c(F)cc3[nH]2)c1` [Example 32, 1-(4-Bromo-5,6-difluoro-1H-benzoimidazol-2-yl)-1H-pyrazole-4-carboxylic Acid] were, in that order, 6.7 and 33%.
Regarding `Cc1cc(Cl)cc2[nH]c(-n3cc(C(=O)O)cn3)nc12` [Example 33, 1-(6-Chloro-4-methyl-1H-benzoimidazol-2-yl)-1H-pyrazole-4-carboxylic Acid], the “Enzyme pIC50” value on human PHD2181-417 was 6. For the same compound, the EPO secretion, % of control compound in the experiment on Hep-3B cells was 13.4%.
The matching figures for `O=C(O)c1cnn(-c2nc3c(Cl)cc(Cl)cc3[nH]2)c1` [Example 34, 1-(4,6-Dichloro-1H-benzoimidazol-2-yl)-1H-pyrazole-4-carboxylic Acid]: 6.5 and 56.3%.
For `O=C(O)c1cnn(-c2nc3c(Br)cc(C(F)(F)F)cc3[nH]2)c1` [Example 35, 1-(4-Bromo-6-trifluoromethyl-1H-benzoimidazol-2-yl)-1H-pyrazole-4-carboxylic Acid], at human PHD2181-417, the “Enzyme pIC50” value was found to be 6.8. Besides, the EPO secretion, % of control compound in the experiment with Hep-3B cells is 29.7%.
The like results for `O=C(O)c1cnn(-c2nc3cc(F)c(F)cc3[nH]2)c1` [Example 36, 1-(5,6-Difluoro-1H-benzoimidazol-2-yl)-1H-pyrazole-4-carboxylic Acid] were, in that order, 6.6 and 79.4%.
The matching figures for `O=C(O)c1cnn(-c2nc3c(Br)cc(Cl)cc3[nH]2)c1` [Example 37, 1-(4-Bromo-6-chloro-1H-benzoimidazol-2-yl)-1H-pyrazole-4-carboxylic Acid]: 6.6 and 34%.
Take `CS(=O)(=O)c1ccc2nc(-n3cc(C(=O)O)cn3)[nH]c2c1` [Example 38, 1-(6-Methanesulfonyl-1H-benzoimidazol-2-yl)-1H-pyrazole-4-carboxylic Acid]: the “Enzyme pIC50” value on human PHD2181-417 is reported as 7.1. In the experiment on Hep-3B cells, the EPO secretion, % of control compound was determined as 40.9%.
The matching figures for `N#Cc1cc2nc(-n3cc(C(=O)O)cn3)[nH]c2cc1Cl` [Example 39, 1-(6-Chloro-5-cyano-1H-benzoimidazol-2-yl)-1H-pyrazole-4-carboxylic Acid]: 7.4 and 29.9%.
The like results for `O=C(O)c1cnn(-c2nc3cc([N+](=O)[O-])c(Cl)cc3[nH]2)c1` [Example 40, 1-(6-Chloro-5-nitro-1H-benzoimidazol-2-yl)-1H-pyrazole-4-carboxylic Acid] were, in that order, 7.5 and 93.4%.
`Nc1cc2nc(-n3cc(C(=O)O)cn3)[nH]c2cc1Cl` [Example 41, 1-(5-Amino-6-chloro-1H-benzoimidazol-2-yl)-1H-pyrazole-4-carboxylic Acid]: the “Enzyme pIC50” value on human PHD2181-417 turned out to be 6.4. In addition, in the experiment on Hep-3B cells, the EPO secretion, % of control compound is 30%.
Turning to `O=C(O)c1cnn(-c2nc3cc(F)ccc3[nH]2)c1` [Example 42, 1-(5-Fluoro-1H-benzoimidazol-2-yl)-1H-pyrazole-4-carboxylic Acid], the “Enzyme pIC50” value at human PHD2181-417 came out at 6.3. In addition, the EPO secretion, % of control compound in the experiment with Hep-3B cells worked out at 33.8%.
As for `O=C(O)c1cnn(-c2nc3cc(SCc4ccc(C(F)(F)F)cc4)c(Cl)cc3[nH]2)c1` [Example 170, 1-[6-Chloro-5-(4-trifluoromethyl-benzylsulfanyl)-1H-benzoimidazol-2-yl]-1H-pyrazole-4-carboxylic Acid], the “Enzyme pIC50” value at human PHD2181-417 is given as 6.7.
On the same count and under the same terms, with `O=C(O)c1cnn(-c2nc3cc(SCc4ccc(C(F)(F)F)cc4C(F)(F)F)c(Cl)cc3[nH]2)c1` [Example 171, 1-[5-(2,4-Bis-trifluoromethyl-benzylsulfanyl)-6-chloro-1H-benzoimidazol-2-yl]-1H-pyrazole-4-carboxylic Acid] the figure was 6.7; with `N#Cc1ccccc1-c1ccc(CSc2cc3nc(-n4cc(C(=O)O)cn4)[nH]c3cc2Cl)cc1` [Example 172, 1-[6-Chloro-5-(2′-cyano-biphenyl-4-ylmethylsulfanyl)-1H-benzoimidazol-2-yl]-1H-pyrazole-4-carboxylic Acid], 7.5.
As to `Cc1ccc(CS(=O)(=O)c2cc3nc(-n4cc(C(=O)O)cn4)[nH]c3cc2Cl)cc1` [Example 178, 1-(6-Chloro-5-p-tolylmethanesulfonyl-1H-benzoimidazol-2-yl)-1H-pyrazole-4-carboxylic Acid], the “Enzyme pIC50” value on human PHD2181-417 is reported as 7.7.
On the same count and under the same terms, with `O=C(O)c1cnn(-c2nc3cc(S(=O)(=O)Cc4ccc(C(F)(F)F)cc4)c(Cl)cc3[nH]2)c1` [Example 179, 1-[6-Chloro-5-(4-trifluoromethyl-phenylmethanesulfonyl)-1H-benzoimidazol-2-yl]-1H-pyrazole-4-carboxylic Acid] the figure was 7.7; with `O=C(O)c1cnn(-c2nc3cc(S(=O)(=O)Cc4ccc(C(F)(F)F)cc4C(F)(F)F)c(Cl)cc3[nH]2)c1` [Example 180, 1-[5-(2,4-Bis-trifluoromethyl-phenylmethanesulfonyl)-6-chloro-1H-benzoimidazol-2-yl]-1H-pyrazole-4-carboxylic Acid], 7.6; with `N#Cc1ccccc1-c1ccc(CS(=O)(=O)c2cc3nc(-n4cc(C(=O)O)cn4)[nH]c3cc2Cl)cc1` [Example 181, 1-[6-Chloro-5-(2′-cyano-biphenyl-4-ylmethanesulfonyl)-1H-benzoimidazol-2-yl]-1H-pyrazole-4-carboxylic Acid], 7.7.
